Test results reported in paper PMC3739326 (The Biochemical journal, 2011).

Columns and labels:
[1] = test system: lymphoblasts from SCA11-affected individuals; conditions: cycloheximide as inhibitor of nonsense-mediated decay; cited from earlier work
[2] = target: GST–TTBK2-(1–450) wild-type (Homo sapiens, UniProt Q6IQ55); test: TTBK2 peptide kinase assay; format: biochemical
[3] = test system: TTBK2[R181A or R181E] or TTBK2[A184G or A184E] mutants, GST–TTBK2-(1–450); test: TTBK2 peptide kinase assay with phosphate-priming groove mutants; format: biochemical, human; conditions: read-out: Km of peptide phosphorylation by TTBK2 mutants, 0.1 mM [γ-32P]ATP, 20 min at 30 °C, non-linear regression

GST–TTBK2-(1–450) wild-type, sequence (Q6IQ55 1-450): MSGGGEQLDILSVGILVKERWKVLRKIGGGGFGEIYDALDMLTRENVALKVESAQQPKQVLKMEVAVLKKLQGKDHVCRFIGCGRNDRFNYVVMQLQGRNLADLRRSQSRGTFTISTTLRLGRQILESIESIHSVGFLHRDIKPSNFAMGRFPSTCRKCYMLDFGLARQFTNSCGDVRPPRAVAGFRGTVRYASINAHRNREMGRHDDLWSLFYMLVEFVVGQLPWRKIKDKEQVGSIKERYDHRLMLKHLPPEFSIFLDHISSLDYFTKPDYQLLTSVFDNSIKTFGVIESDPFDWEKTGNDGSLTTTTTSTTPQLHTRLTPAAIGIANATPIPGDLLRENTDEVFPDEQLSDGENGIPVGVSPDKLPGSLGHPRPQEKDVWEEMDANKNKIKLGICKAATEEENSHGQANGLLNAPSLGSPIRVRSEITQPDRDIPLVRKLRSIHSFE

**Q.** Which “TTBK2 mRNA level” value [1] does the source give for `C[C@@H]1C[C@@H]([C@H](O)CC2CC(=O)NC(=O)C2)C(=O)[C@@H](C)C1` [cycloheximide] here?
**A.** increased TTBK2 mRNA to levels that are similar in the normal transcript

**Q.** What does the source list for RRKDLHDDEEDEAMSIYpA [TTBKtide]?
**A.** decrease of Km value by introducing a phosphotyrosine at the +2 position ([2]; relative to CK1tide): approximately 8 fold; Vmax of peptide phosphorylation by TTBK2 ([2]; wild-type TTBK2, 0.1 mM [γ-32P]ATP, 20 min at 30 °C, non-linear regression): 76 units/mg; Km [3]: 100 to 150 µM

**Q.** With “RRKDLHDDEEDEAMS*ITA [CK1tide, reference compound]” as the compound, how does the “peptide phosphorylation by TTBK2 (in words)” value ([2]; TTBK2-(1–450)) read?
**A.** phosphorylates CK1tide specifically at this serine residue
